The source of these data is patent US11360104B2, “Microbial-based biosensors” (TRUSTEES OF BOSTON UNIVERSITY, priority 2017, dated 2022).

The test concerns steroid responsive genome island (SRGI). The test is described as follows: Whole transcriptome RNA-Seq of steroid treated P. simplex. It counts as cell-based, Pimelobacter simplex. The conditions noted are these: P. simplex exposed to steroid vs solvent control, Log2 fold change. The source says:
In order to identify steroid binding Transcription Factors, a whole transcriptome RNA sequencing (RNA-Seq) screen was developed (FIG. 7). The growth of Pimelobacter simplex bacteria was profiled with respect to the starting inoculation density, solvent toxicity, and the addition of steroids (FIG. 16). […] P. simplex bacteria were screened against the steroid solvents ethanol (EtOH) and dimethyl sulfoxide (DMSO). […] Steroid growth curves were similarly performed using a starting OD of 0.005 and constant solvent dosing with titrations of steroids. […] P. simplex bacteria were grown in the presence of 700 μM testosterone, 21.88 μM progesterone, 87.50 μM estrone, 21.88 μM 17β-estradiol, 21.88 μM hydrocortisone, or 175.00 μM aldosterone concentrations were selected for comparison.
Using accession gene tags, genes were annotated for steroid relevant enzymes or transcription factors. […] Allosteric TF binding sequences are often palindromes and typically located near the start of its gene location in an intergenic space. With such a design, the allosteric TF can regulate itself or the open reading frame (ORF) near it in response to its effector molecule. […] Once identified, the TFs were cloned and recombinantly expressed for thorough characterization.
Cells were grown in 6 mL volumes of media at the OD, solvent, and steroid concentrations found from the growth curves in 14 mL polypropylene round-bottom tubes (Corning #352059) in technical duplicate. The same controls as in the steroid exposure growth curve were used for setting up RNA extraction samples. The cells were incubated at their corresponding temperature with continuous orbital shaking at 150 rpm until the end of lag-phase, mid-log phase, or stationary phase from the start of inoculation. Afterward, samples were removed and a 1:1 ratio of RNAprotect Bacteria Reagent (Qiagen #76506) was added followed by spinning down at 4° C. for 10 minutes at 4000 g. Supernatant was removed and the pellet re-suspended in 300 μL of RNAprotect and transferred into 2.0 mL Safe-Lock Tubes (Eppendorf #3101). The samples were then spun down once again at 4° C. for 10 minutes at 10000 g. Once the supernatant has been removed the samples were placed on ice and ready for RNA extraction. RNA extraction was done by Qiacube (Qiagen #9001292) set to the RNeasy Protect Bacteria Mini Kit protocol of bacterial cell pellet with enzymatic lysis. Tube A was prepared as described except with the addition of 150 mg/mL lysozyme (Sigma-Aldrich #L6876) and 20 mg/mL proteinase K (Roche #03115879001) all diluted in 1xTE buffer. RNA samples were subsequently quantified using Qubit RNA HS Assay Kit (Thermo Fisher Scientific #Q32852) and analyzed using a RNA 6000 Pico Kit (Agilent 5067-1513) in a 2100 Bioanalyzer (Agilent G2939A). RNA samples were either immediately used for RNA-Seq library preparation or stored long-term at −80° C.
RNA-Seq libraries were then produced from these samples using a slightly modified ScriptSeq v2 RNA-Seq Library Preparation Kit (Illumina 455A/22124) ensuring use of unique index primers through ScriptSeq Index PCR Primers (Sets 1-4) 48 rxns/set (Illumina #SSIP1234).

As to `CC(=O)[C@H]1CC[C@H]2[C@@H]3CCC4=CC(=O)CC[C@]4(C)[C@H]3CC[C@]12C` [PRG, Progesterone], the “upregulation of genes inside the SRGI” value was “observed”.
